Data published in PubChem BioAssay AID250 (DTP/NCI, 2004).
Several values for one entry are separate records, joined by “and”; a condition that tells them apart may be missing. Identical values can stand only once. Inconclusive results and toxic doses are left out. Rule for the calls: active = survival T/C of 150% or more; inactive = T/C below 125% in these data.

System: BDF1 mice, L1210 leukemia sc, survival T/C
Test: NCI In Vivo Anticancer Drug Screen. Data for tumor model L1210 Leukemia (subcutaneous) in B6D2F1 (BDF1) mice
Details: higher = longer survival
Procedure, shortened: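 Antitumor activity is assessed in mice with transplanted tumors by comparing the treated group (T) with the vehicle control group (C).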

Measured: T/C

Nc1nc2c(c(=O)[nH]1)N=C(CNc1ccc(C(=O)NC(CCC(=O)O)C(=O)O)cc1)CN2 (stereo not given)
inactive: endpoint: mean survival time, dose: 1.0 mg/kg/injection, schedule: Q01DX009 (ip), vehicle: sodium bicarbonate 95 % of control | endpoint: mean survival time, dose: 2.0 mg/kg/injection, schedule: Q01DX009 (ip), vehicle: sodium bicarbonate 94 % of control | endpoint: mean survival time, dose: 4.0 mg/kg/injection, schedule: Q01DX009 (ip), vehicle: sodium bicarbonate 98 % of control | endpoint: mean survival time, dose: 4.0 mg/kg/injection, schedule: Q04DX003 (ip), vehicle: sodium bicarbonate 98 % of control | endpoint: mean survival time, dose: 8.0 mg/kg/injection, schedule: Q01DX009 (ip), vehicle: sodium bicarbonate 94 % of control | endpoint: mean survival time, dose: 8.0 mg/kg/injection, schedule: Q04DX003 (ip), vehicle: sodium bicarbonate 100 % of control | endpoint: mean survival time, dose: 16.0 mg/kg/injection, schedule: Q01DX009 (ip), vehicle: sodium bicarbonate 102 % of control | endpoint: mean survival time, dose: 16.0 mg/kg/injection, schedule: Q04DX003 (ip), vehicle: sodium bicarbonate 96 % of control | endpoint: mean survival time, dose: 32.0 mg/kg/injection, schedule: Q04DX003 (ip), vehicle: sodium bicarbonate 98 % of control | endpoint: mean survival time, dose: 64.0 mg/kg/injection, schedule: Q04DX003 (ip), vehicle: sodium bicarbonate 96 % of control

COc1cc2cc3c4cc(OC)c(OC)cc4cc[n+]3c(C)c2cc1OC
inactive: endpoint: median survival time, dose: 100.0 mg/kg/injection, schedule: Q01DX009 (sc), vehicle: saline 97 % of control and 100 % of control | endpoint: median survival time, dose: 200.0 mg/kg/injection, schedule: Q01DX009 (sc), vehicle: saline 97 % of control and 100 % of control | endpoint: median survival time, dose: 400.0 mg/kg/injection, schedule: Q01DX009 (sc), vehicle: saline 99 % of control and 100 % of control | endpoint: median survival time, dose: 800.0 mg/kg/injection, schedule: Q01DX009 (sc), vehicle: saline 100 % of control and 101 % of control | endpoint: median survival time, dose: 1600.0 mg/kg/injection, schedule: Q01DX009 (sc), vehicle: saline 97 % of control and 100 % of control

Clc1ncnc2c1ncn2C1CCCO1 (stereo not given)
inactive: endpoint: median survival time, dose: 8.4 mg/kg/injection, schedule: Q01DX Z (sc), vehicle: methylcellulose (MC) 100 % of control | endpoint: median survival time, dose: 14.0 mg/kg/injection, schedule: Q01DX Z (sc), vehicle: methylcellulose (MC) 100 % of control | endpoint: median survival time, dose: 23.0 mg/kg/injection, schedule: Q01DX Z (sc), vehicle: methylcellulose (MC) 100 % of control | endpoint: median survival time, dose: 39.0 mg/kg/injection, schedule: Q01DX Z (sc), vehicle: methylcellulose (MC) 100 % of control | endpoint: median survival time, dose: 65.0 mg/kg/injection, schedule: Q01DX Z (sc), vehicle: methylcellulose (MC) 100 % of control | endpoint: median survival time, dose: 108.0 mg/kg/injection, schedule: Q01DX Z (sc), vehicle: methylcellulose (MC) 100 % of control | endpoint: median survival time, dose: 180.0 mg/kg/injection, schedule: Q01DX Z (sc), vehicle: methylcellulose (MC) 100 % of control | endpoint: median survival time, dose: 300.0 mg/kg/injection, schedule: Q01DX Z (sc), vehicle: methylcellulose (MC) 110 % of control | endpoint: median survival time, dose: 500.0 mg/kg/injection, schedule: Q01DX Z (sc), vehicle: methylcellulose (MC) 100 % of control

CCN(CC)CCCC(C)Nc1c2ccc(Cl)cc2nc2ccc(OC)cc12 (stereo not given)
inactive: endpoint: median survival time, dose: 23.0 mg/kg/injection, schedule: Q01DX Z (sc), vehicle: water 90 % of control | endpoint: median survival time, dose: 39.0 mg/kg/injection, schedule: Q01DX Z (sc), vehicle: water 100 % of control | endpoint: median survival time, dose: 65.0 mg/kg/injection, schedule: Q01DX Z (sc), vehicle: water 100 % of control | endpoint: median survival time, dose: 108.0 mg/kg/injection, schedule: Q01DX Z (sc), vehicle: water 95 % of control | endpoint: median survival time, dose: 180.0 mg/kg/injection, schedule: Q01DX Z (sc), vehicle: water 100 % of control | endpoint: median survival time, dose: 300.0 mg/kg/injection, schedule: Q01DX Z (sc), vehicle: water 100 % of control

O=c1[nH]c(=O)n(C2CC(O)C(CO)O2)cc1Br (stereo not given)
inactive: endpoint: median survival time, dose: 65.0 mg/kg/injection, schedule: Q01DX Z (sc), vehicle: saline 111 % of control | endpoint: median survival time, dose: 108.0 mg/kg/injection, schedule: Q01DX Z (sc), vehicle: saline 111 % of control | endpoint: median survival time, dose: 180.0 mg/kg/injection, schedule: Q01DX Z (sc), vehicle: saline 111 % of control | endpoint: median survival time, dose: 300.0 mg/kg/injection, schedule: Q01DX Z (sc), vehicle: saline 111 % of control | endpoint: median survival time, dose: 500.0 mg/kg/injection, schedule: Q01DX Z (sc), vehicle: saline 122 % of control | endpoint: median survival time, dose: 833.0 mg/kg/injection, schedule: Q01DX Z (sc), vehicle: saline 122 % of control

Nc1ccc(S(=O)(=O)Nc2ccc(Nc3c4ccccc4nc4ccccc34)cc2)cc1
inactive: endpoint: median survival time, dose: 1.5 mg/kg/injection, schedule: Q01DX009 (ip), vehicle: saline with Tween-80 100 % of control | endpoint: median survival time, dose: 3.0 mg/kg/injection, schedule: Q01DX009 (ip), vehicle: saline with Tween-80 112 % of control | endpoint: median survival time, dose: 6.0 mg/kg/injection, schedule: Q01DX009 (ip), vehicle: saline with Tween-80 112 % of control | endpoint: median survival time, dose: 12.0 mg/kg/injection, schedule: Q01DX009 (ip), vehicle: saline with Tween-80 112 % of control

Nc1cc(C(=O)Nc2ccc(C3=NCCN3)cc2)ccc1C(=O)Nc1ccc(C2=NCCN2)cc1
active: endpoint: median survival time, dose: 4.0 mg/kg/injection, schedule: Q01DX Z (sc), vehicle: water 215 % of control | endpoint: median survival time, dose: 8.0 mg/kg/injection, schedule: Q01DX Z (iv), vehicle: water 215 % of control | endpoint: median survival time, dose: 8.0 mg/kg/injection, schedule: Q01DX Z (sc), vehicle: water 230 % of control | endpoint: median survival time, dose: 16.0 mg/kg/injection, schedule: Q01DX Z (iv), vehicle: water 215 % of control | endpoint: median survival time, dose: 16.0 mg/kg/injection, schedule: Q01DX Z (sc), vehicle: water 245 % of control | endpoint: median survival time, dose: 32.0 mg/kg/injection, schedule: Q01DX Z (sc), vehicle: water 195 % of control
inactive: endpoint: median survival time, dose: 1.0 mg/kg/injection, schedule: Q01DX Z (iv), vehicle: water 100 % of control | endpoint: median survival time, dose: 2.0 mg/kg/injection, schedule: Q01DX Z (iv), vehicle: water 100 % of control | endpoint: median survival time, dose: 2.0 mg/kg/injection, schedule: Q01DX Z (sc), vehicle: water 110 % of control | endpoint: median survival time, dose: 4.0 mg/kg/injection, schedule: Q01DX Z (iv), vehicle: water 120 % of control

C=CC(O)CN1CC1 (stereo not given)
active: endpoint: median survival time, dose: 4.7 mg/kg/injection, schedule: Q01DX Z (sc), vehicle: saline 160 % of control | endpoint: median survival time, dose: 5.0 mg/kg/injection, schedule: Q01DX Z (sc), vehicle: saline 155 % of control and 159 % of control and 163 % of control | endpoint: median survival time, dose: 7.8 mg/kg/injection, schedule: Q01DX Z (sc), vehicle: saline 170 % of control and 177 % of control | endpoint: median survival time, dose: 14.0 mg/kg/injection, schedule: Q02DX Z (sc), vehicle: saline 181 % of control | endpoint: median survival time, dose: 23.0 mg/kg/injection, schedule: Q02DX Z (sc), vehicle: saline 150 % of control | endpoint: median survival time, dose: 23.0 mg/kg/injection, schedule: Q## X Z (sc), vehicle: saline 154 % of control | endpoint: median survival time, dose: 39.0 mg/kg/injection, schedule: Q## X Z (sc), vehicle: saline 159 % of control
inactive: endpoint: median survival time, dose: 0.65 mg/kg/injection, schedule: Q01DX Z (sc), vehicle: saline 100 % of control | endpoint: median survival time, dose: 1.08 mg/kg/injection, schedule: Q01DX Z (sc), vehicle: saline 100 % of control | endpoint: median survival time, dose: 1.7 mg/kg/injection, schedule: Q01DX Z (sc), vehicle: saline 100 % of control | endpoint: median survival time, dose: 1.8 mg/kg/injection, schedule: Q01DX Z (sc), vehicle: saline 100 % of control | endpoint: median survival time, dose: 2.8 mg/kg/injection, schedule: Q01DX Z (sc), vehicle: saline 111 % of control | endpoint: median survival time, dose: 3.0 mg/kg/injection, schedule: Q02DX Z (sc), vehicle: saline 104 % of control | endpoint: median survival time, dose: 5.0 mg/kg/injection, schedule: Q02DX Z (sc), vehicle: saline 118 % of control | endpoint: median survival time, dose: 8.4 mg/kg/injection, schedule: Q01DX Z (sc), vehicle: saline 122 % of control | endpoint: median survival time, dose: 8.4 mg/kg/injection, schedule: Q## X Z (sc), vehicle: saline 109 % of control | endpoint: median survival time, dose: 14.0 mg/kg/injection, schedule: Q01DX Z (sc), vehicle: saline 113 % of control | endpoint: median survival time, dose: 14.0 mg/kg/injection, schedule: Q## X Z (sc), vehicle: saline 118 % of control | endpoint: median survival time, dose: 21.6 mg/kg/injection, schedule: Q01DX Z (sc), vehicle: saline 110 % of control | endpoint: median survival time, dose: 23.0 mg/kg/injection, schedule: Q01DX Z (sc), vehicle: saline 100 % of control | endpoint: median survival time, dose: 36.0 mg/kg/injection, schedule: Q01DX Z (sc), vehicle: saline 111 % of control | endpoint: median survival time, dose: 60.0 mg/kg/injection, schedule: Q01DX Z (sc), vehicle: saline 100 % of control | endpoint: median survival time, dose: 65.0 mg/kg/injection, schedule: Q01DX001 (sc), vehicle: saline 118 % of control | endpoint: median survival time, dose: 65.0 mg/kg/injection, schedule: Q02DX Z (sc), vehicle: saline 104 % of control | endpoint: median survival time, dose: 65.0 mg/kg/injection, schedule: Q## X Z (sc), vehicle: saline 109 % of control
